Assay results from PubChem BioAssay AID504898 (Southern Research Specialized Biocontainment Screening …, 2011).
Activity calls are given as the source filed them. The rule behind the calls is not given here.

How the values were obtained:
[1] = Mycobacterium tuberculosis H37Rv growth inhibition, glycerol free medium, confirmatory dose response (AID 504898); settings: M. tuberculosis H37Rv growth inhibition, glycerol-free medium; at 100 µM (top of the series)
[2] = test system: M. tuberculosis H37Rv growth inhibition, glycerol-free medium; assay: as above; settings: for IC50: measured here: M. tuberculosis growth IC50

Row | SMILES | growth inhibition [1] | IC90 [2] [nM] | IC50 [2] [nM]
1 | CCC(Sc1nc2c(c(=O)[nH]1)CCC2)C(=O)Nc1cccc(OC)c1 (stereo not given) | -0.59% (inactive) | – | –
2 | CC(Sc1nc2ccccc2c(=O)[nH]1)C(=O)NC1CCCCC1 (stereo not given) | -1.37% (inactive) | – | –
3 | Cc1nc(SCC(=O)N(C)c2ccccc2)[nH]c(=O)c1C | -9.33% (inactive) | – | –
4 | O=C(CSc1nccc(=O)[nH]1)NC1CCCCC1 | -5.34% (inactive) | – | –
5 | NNC(=O)c1ccncc1 | – | 460 | 310
6 | CNC(=O)CSc1nc2ccccc2c(=O)[nH]1 | – | – | 78200
7 | Cc1cccc(/C=C/C(=O)c2ccc([N+](=O)[O-])o2)c1 | – | 2230 | 1490
8 | COc1ccc(NC(=O)CSc2nc3ccccc3c(=O)[nH]2)cc1 | 1.8% (inactive) | – | –
9 | O=c1[nH]c(=S)[nH]c2ccccc12 | -2.86% (inactive) | – | –
10 | CC(C)CCNC(=O)CSc1nc2c(c(=O)[nH]1)CCC2 | – | 2020 | 1370
11 | CC(C)CCNC(=O)CSc1nc2ccccc2c(=O)[nH]1 | – | 280 | < 110
12 | Cc1cc(=O)[nH]c(=S)[nH]1 | -2.75% (inactive) | – | –
13 | O=c1[nH]c(SCc2ccccc2Cl)nc2c1CCCC2 | 0.45% (inactive) | – | –
14 | O=C(CSc1ncccn1)NC1CCCCC1 | -3.37% (inactive) | – | –
15 | CN(C)C(=O)CSc1nc2ccccc2c(=O)[nH]1 | 4.4% (inactive) | – | –
16 | COC(=O)C(Nc1nc(SCC(=O)NC2CCCCC2)nc2ccccc12)c1ccccc1 (stereo not given) | -4.58% (inactive) | – | –
17 | NC(=O)CSc1nc2ccccc2c(=O)[nH]1 | 3.58% (inactive) | – | –
18 | Cc1cc(Br)ccc1NC(=O)c1cnc(N2CCN(c3ccccn3)CC2)c2ccccc12 | – | – | 4320
19 | NC(=O)c1cnccn1 | 3.35% (inactive) | – | –
20 | CC[N+](C)(CC)CCCCOc1ccc2c(c1)C(=O)c1cc(OCCCC[N+](C)(CC)CC)ccc1-2 | – | 2800 | 1920
21 | O=C(CSc1nc2c(c(=O)[nH]1)CCC2)NC1CCCCC1 | – | < 100 | < 65
22 | CCSc1nc(C)c(C)c(=O)[nH]1 | 3.43% (inactive) | – | –
23 | CN(C(=O)CSc1nc2ccccc2c(=O)[nH]1)C1CCCCC1 | 2.63% (inactive) | – | –

Row | SMILES | growth inhibition [1] | IC90 [2] [nM] | IC50 [2] [nM]
24 | Nc1cc(=O)[nH]c(SCC(=O)NC2CCCCC2)n1 | 0.56% (inactive) | – | –
25 | COc1cccc(NC(=O)CSc2nc3ccccc3c(=O)[nH]2)c1 | -2.5% (inactive) | – | –
26 | CC(C)NC(=O)CSc1nc2ccccc2c(=O)[nH]1 | – | 15000 | 9870
27 | COC(=O)C(C)Oc1ccc(Cc2ncc(C(F)(F)F)cc2Cl)cc1 (stereo not given) | – | 5620 | 3630
28 | CCOC1OC(=O)C(Cl)=C1Nc1ccccc1C (stereo not given) | – | 5980 | 2980
29 | CCOc1ccc(-c2cc(C)[n+](CCc3ccc(OC)c(OC)c3)c(-c3ccc(OCC)cc3)c2)cc1 | – | 1450 | 720
30 | Cc1ccc(NC(=O)CSc2nc3ccccc3c(=O)[nH]2)cc1Cl | -2.52% (inactive) | – | –
31 | Cc1nc(SCC(=O)NCCC(C)C)[nH]c(=O)c1C | – | 13600 | 9380
32 | O=C(CSc1ccccn1)NC1CCCCC1 | 13.4% (inactive) | – | –
33 | Cc1ccc(C(=O)N/N=C(/CC(=O)c2cccs2)C(F)(F)F)cc1 | – | 2900 | 1710
34 | Cc1nc(SCC(N)=O)[nH]c(=O)c1C | 3% (inactive) | – | –
35 | CC1CCN(C(=O)C2CCN(c3nnc(-n4cccc4)s3)CC2)CC1 | – | 6190 | 3030
36 | CCOC(=O)CSc1nc(C)c(C)c(=O)[nH]1 | -0.94% (inactive) | – | –
37 | Cc1nc(SCC(=O)NC2CCCCC2)[nH]c(=O)c1C | – | 9530 | 130
38 | Cc1ccc(NC(=O)COC(=O)CCc2c[nH]c3ccccc23)cc1[N+](=O)[O-] | – | 8510 | 2340
39 | O=C(CSc1nc2ccccc2c(=O)[nH]1)NCc1ccc(Cl)cc1 | – | 1600 | 1090
40 | Cc1c[nH]c(=S)[nH]c1=O | -1.93% (inactive) | – | –
41 | Cc1cc(C)n2nc(N)c(N=Nc3ccccc3)c2n1 | – | 5840 | 4250
42 | CCSc1nc2ccccc2c(=O)[nH]1 | -0.83% (inactive) | – | –
43 | c1ccc(/N=C2\N=C(Nc3ccccn3)c3ccccc32)nc1 | – | 2520 | 1780
44 | Cc1nc(SCC(=O)NC2CCCC2)[nH]c(=O)c1C | – | 13800 | 9450
45 | CCCc1cc(C(N)=S)ccn1 | – | – | 9610
46 | Cc1cc(=O)[nH]c(SCC(=O)NC2CCCCC2)n1 | -3.3% (inactive) | – | –

Row | SMILES | growth inhibition [1] | IC90 [2] [nM] | IC50 [2] [nM]
47 | Cc1cnc(SCC(=O)NC2CCCCC2)[nH]c1=O | -3.1% (inactive) | – | –
48 | O=C(CSc1nc2ccccc2c(=O)[nH]1)NC1CCCCC1 | – | 510 | 360
49 | NC[C@H]1O[C@H](O[C@H]2[C@H](O)[C@@H](O[C@H]3O[C@H](CO)[C@@H](O)[C@H](N)[C@H]3O)[C@H](N)C[C@@H]2N)[C@H](O)[C@@H](O)[C@@H]1O | – | 2420 | 1790
50 | CC(C)N=c1cc2n(-c3ccc(Cl)cc3)c3ccccc3nc-2cc1Nc1ccc(Cl)cc1 | – | 360 | 67
51 | CCC(Sc1nc2ccccc2c(=O)[nH]1)C(=O)Nc1cccc(OC)c1 (stereo not given) | -0.61% (inactive) | – | –
52 | Cn1c(SCC(=O)NC2CCCCC2)nc2ccccc2c1=O | -3.28% (inactive) | – | –
53 | O=C(CSc1nc2c(c(=O)[nH]1)CCCC2)NC1CCCCC1 | – | < 110 | < 57
54 | Cc1[nH]c2ccccc2c1C(=O)COC(=O)c1ccc([N+](=O)[O-])s1 | – | – | > 67100
55 | Nc1c(C(=O)NC2CCCCC2)nsc1C(=O)OCC(=O)NC1CCCCC1 | – | 52600 | 6560
56 | COC(=O)c1ccc(CNc2c(N3CCCC3)c(=O)c2=O)cc1 | 0.74% (inactive) | – | –
57 | Cc1nc(SCc2ccccc2Cl)[nH]c(=O)c1C | -0.81% (inactive) | – | –
58 | Cc1cccc(-c2oc3ccc(-c4ccc5c(c4)OCO5)cc3c2C#Cc2cncn2C)c1 | – | 3020 | 2610
59 | COc1c(N2CCNC(C)C2)c(F)cc2c(=O)c(C(=O)O)cn(C3CC3)c12 (stereo not given) | – | 140 | 109
60 | CN[C@@H]1[C@H](O[C@H]2[C@H](O[C@H]3[C@H](O)[C@@H](O)[C@H](N=C(N)N)[C@@H](O)[C@@H]3N=C(N)N)O[C@@H](C)[C@]2(O)C=O)O[C@@H](CO)[C@H](O)[C@H]1O | – | 180 | 126
61 | O=C(CSc1nc2ccccc2c(=O)[nH]1)N1CCOCC1 | 3.26% (inactive) | – | –
62 | Cc1[nH]c(=S)[nH]c(=O)c1C | -2.88% (inactive) | – | –
63 | CCC(Sc1nc2ccccc2c(=O)[nH]1)C(=O)NC1CCCCC1 (stereo not given) | -0.87% (inactive) | – | –
64 | COc1cccc(NC(=O)CSc2nc3c(c(=O)[nH]2)CCC3)c1 | -9.1% (inactive) | – | –
65 | CN1CCC(NC(=O)CSc2nc3ccccc3c(=O)[nH]2)CC1 | -4% (inactive) | – | –
66 | O=C(CSc1nc2ccccc2c(=O)[nH]1)NC1CCCC1 | – | 630 | 270
67 | CC1CCN(C(=O)CSc2nc3ccccc3c(=O)[nH]2)CC1 | -0.8% (inactive) | – | –
